Where two headings read alike, the source gives them in different places.
Tests used:
[1] = target: recombinant human IL-17AA (Homo sapiens, UniProt Q16552); test: IL-6 release from NHDF cells, IL-17AA plus TNF-α stimulation; assay type: cell-based; conditions: IL-17AA 30 pM plus TNF-α 6 pM, 24 hours, IL-6 by ELISA
Experimental: IL-6 Release from NHDF Cells (Normal Human Dermal Fibroblasts)
NHDF cells isolated from normal adult mesoderm, connective tissues were cultured in fibroblast growth medium containing 2% supplement. […] The cells were allowed to adhere overnight before they were incubated with the compound/cytokine cocktail.
Diluted compounds were pre-incubated with recombinant human IL-17AA or IL-17AF plus human TNF-α for 30 minutes at room temperature on a shaker. […] The cells were incubated with the compound/cytokines cocktail for 24 hours at 37° C. (5% CO2). […] The final DMSO or plasma concentrations were 0.1% or 20%, respectively. All compound incubations were done in duplicate. The supernatants were collected to quantify IL-6 by ELISA according to the manufacturers instructions. The optical density was measured at 450 nm by an EnVision Multilabel Plate Reader (Perkin Elmer). The IL-6 levels produced after TNF-α stimulation were subtracted from the IL-6 produced after IL-17/TNF-α co-stimulation. These IL-17-specific IL-6 concentrations were used for […] value calculation.

[2] = target: biotinylated human IL-17A / AF647-labeled human IL-17RA (Homo sapiens, UniProt Q16552); test: Human IL-17A×IL-17RA TR-FRET assay; assay type: binding; conditions: biotinylated human IL-17A 5 nM, AF647-labeled human IL-17RA 30 nM
Procedure, shortened: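 Compounds tested in duplicate at each concentration; neutral controls contain all components with DMSO in place of compound.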

[3] = NHDF cells, read-out: IL17AA + TNF IC50 IL-6
[4] = TR-FRET, read-out: IL17AA FRET/ IL17Rawt IC50
[5] = IL17AA + TNF IC50 IL-6, NHDF cells
[6] = IL17AA FRET/ IL17Rawt IC50, TR-FRET

biotinylated human IL-17A / AF647-labeled human IL-17RA, sequence (Q16552 24-155): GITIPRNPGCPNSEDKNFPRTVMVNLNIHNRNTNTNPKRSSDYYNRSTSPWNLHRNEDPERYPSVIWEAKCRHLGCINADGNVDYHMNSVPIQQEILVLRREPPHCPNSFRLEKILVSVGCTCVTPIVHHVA
recombinant human IL-17AA, sequence (Q16552 24-155): as above

Row | SMILES | IC50 [1, 3] | IC50 [2, 4] | IC50 [1, 5] | IC50 [2, 6]
1 | Cc1cc[n+]([O-])c(C)c1-c1ccc(NC(=O)C(NC(=O)c2ccnn2C)C2CCC(C(F)(F)F)CC2)cc1 [Example 24, 2,4-dimethyl-3-(4-((S)-2-(1-methyl-1H-pyrazole-5-carboxamido)-2-((1r,4S)-4-(trifluoromethyl)cyclohexyl)acetamido)phenyl)pyridine 1-oxide] | – | – | 48 nM | 114 nM
2 | COCc1nocc1C(=O)NC(C(=O)Nc1ccc(-c2c(C)cc[n+]([O-])c2C)cc1)C1CCC(C(F)(F)F)CC1 [Example 25, 3-(4-((S)-2-(3-(methoxymethyl)isoxazole-4-carboxamido)-2-((1r,4S)-4-(trifluoromethyl)cyclohexyl)acetamido)phenyl)-2,4-dimethylpyridine 1-oxide] | 69 nM | 178 nM | – | –
3 | CCc1nocc1C(=O)N[C@H](C(=O)Nc1ccc(-c2c(C(F)(F)F)cc[n+]([O-])c2C)cc1)[C@H]1CCCC(F)(F)C1 [Example 26, 3-(4-((S)-2-((S)-3,3-difluorocyclohexyl)-2-(3-ethylisoxazole-4-carboxamido)acetamido)phenyl)-2-methyl-4-(trifluoromethyl)pyridine 1-oxide] | 14 nM | 44 nM | – | –
4 | Cc1c(-c2ccc(NC(=O)[C@@H](NC(=O)c3ccnn3C)C3CCC(F)(F)CC3)cc2)c(C(F)(F)F)cc[n+]1[O-] [Example 27, (S)-3-(4-(2-(4,4-difluorocyclohexyl)-2-(1-methyl-1H-pyrazole-5-carboxamido)acetamido)phenyl)-2-methyl-4-(trifluoromethyl)pyridine 1-oxide] | 115 nM | 121 nM | – | –
5 | CCc1nocc1C(=O)N[C@H](C(=O)Nc1ccc(-c2c(C)cc[n+]([O-])c2C)cc1)[C@@H]1CC=C(F)CC1 [Example 28, 3-(4-((S)-2-(3-ethylisoxazole-4-carboxamido)-2-((S)-4-fluorocyclohex-3-en-1-yl)acetamido)phenyl)-2,4-dimethylpyridine 1-oxide] | 22 nM | 20 nM | – | –
6 | CCc1nocc1C(=O)N[C@H](C(=O)Nc1ccc(-c2c(C)cc[n+]([O-])c2C)cc1)[C@H]1CCCC(F)(F)C1 [Example 30, 3-(4-((S)-2-((S)-3,3-difluorocyclohexyl)-2-(3-ethylisoxazole-4-carboxamido)acetamido)phenyl)-2,4-dimethylpyridine 1-oxide] | 12 nM | 46 nM | – | –
7 | CCc1nocc1C(=O)N[C@H](C(=O)Nc1ccc(-c2c(C)cc[n+]([O-])c2C)cc1)C1CCC(F)(F)CC1 [Example 31, (S)-3-(4-(2-(4,4-difluorocyclohexyl)-2-(3-ethylisoxazole-4-carboxamido)acetamido)phenyl)-2,4-dimethylpyridine 1-oxide] | 15 nM | 114 nM | – | –
8 | Cc1cc[n+]([O-])c(C)c1-c1ccc(NC(=O)[C@@H](NC(=O)c2ccnn2C)C2CCC(F)(F)CC2)cc1 [Example 32, (S)-3-(4-(2-(4,4-difluorocyclohexyl)-2-(1-methyl-1H-pyrazole-5-carboxamido)acetamido)phenyl)-2,4-dimethylpyridine 1-oxide] | 50 nM | 286 nM | – | –
9 | COCc1nocc1C(=O)N[C@H](C(=O)Nc1ccc(-c2c(C)cc[n+]([O-])c2C)cc1)C1CCC(F)(F)CC1 [Example 33, (S)-3-(4-(2-(4,4-difluorocyclohexyl)-2-(3-(methoxymethyl)isoxazole-4-carboxamido)acetamido)phenyl)-2,4-dimethylpyridine 1-oxide] | 88 nM | 1150 nM | – | –
10 | CCn1nccc1C(=O)N[C@H](C(=O)Nc1ccc(-c2c(C)cc[n+]([O-])c2C)cc1)C1CCCC1 [Example 35, (S)-3-(4-(2-cyclopentyl-2-(1-ethyl-1H-pyrazole-5-carboxamido)acetamido)phenyl)-2,4-dimethylpyridine 1-oxide] | 212 nM | 306 nM | – | –
11 | Cc1cc[n+]([O-])c(C)c1-c1ccc(NC(=O)[C@H](Cc2ccccc2Cl)NC(=O)c2conc2C)cc1 [Example 38, (S)-3-(4-(3-(2-chlorophenyl)-2-(3-methylisoxazole-4-carboxamido)propanamido)phenyl)-2,4-dimethylpyridine 1-oxide] | 131 nM | 17 nM | – | –
12 | Cc1cc[n+]([O-])c(C)c1-c1ccc(NC(=O)[C@@H](NC(=O)c2ccnn2C(C)C)C2CCCCCC2)cc1 [Example 40, (S)-3-(4-(2-cycloheptyl-2-(1-isopropyl-1H-pyrazole-5-carboxamido)acetamido)phenyl)-2,4-dimethylpyridine 1-oxide] | 2 nM | 25 nM | – | –
13 | Cc1cc[n+]([O-])c(C)c1-c1ccc(NC(=O)[C@@H](NC(=O)c2ccnn2C)C2CCCCCC2)cc1 [Example 41, (S)-3-(4-(2-cycloheptyl-2-(1-methyl-1H-pyrazole-5-carboxamido)acetamido)phenyl)-2,4-dimethylpyridine 1-oxide] | 9 nM | 24 nM | – | –
14 | Cc1cc[n+]([O-])c(C)c1-c1ccc(NC(=O)[C@@H](NC(=O)c2ccnn2C2CC2)C2CCCCCC2)cc1 [Example 42, (S)-3-(4-(2-cycloheptyl-2-(1-cyclopropyl-1H-pyrazole-5-carboxamido)acetamido)phenyl)-2,4-dimethylpyridine 1-oxide] | 12 nM | 26 nM | – | –
15 | Cc1c(-c2ccc(NC(=O)[C@@H](NC(=O)c3ccnn3C)C3CCCCC3)cc2)c(Cl)cc[n+]1[O-] [Example 45, (S)-4-chloro-3-(4-(2-cyclohexyl-2-(1-methyl-1H-pyrazole-5-carboxamido)acetamid)phenyl)-2-methylpyridine 1-oxide] | – | – | 26 nM | 26 nM
16 | Cc1c(-c2ccc(NC(=O)C(NC(=O)c3ccnn3C)C3CCC(C)CC3)cc2)c(Cl)cc[n+]1[O-] [Example 46, 4-chloro-2-methyl-3-(4-((S)-2-(1-methyl-1H-pyrazole-5-carboxamido)-2-((1r,4S)-4-methylcyclohexyl)acetamido)phenyl)pyridine 1-oxide] | 4 nM | 18 nM | – | –

Second part, led by results:

Row | IC50 [1, 3] | IC50 [2, 4] | SMILES | IC50 [1, 5] | IC50 [2, 6]
17 | 66 nM | 59 nM | Cc1nocc1C(=O)N[C@H](C(=O)Nc1ccc(-c2c(C(F)(F)F)cc[n+]([O-])c2C)cc1)C1CCCC1 [Example 22, (S)-3-(4-(2-cyclopentyl-2-(3-methylisoxazole-4-carboxamido)acetamido)phenyl)-2-methyl-4-(trifluoromethyl)pyridine 1-oxide] | – | –
18 | 6 nM | 60 nM | Cc1cc[n+]([O-])c(C)c1-c1ccc(NC(=O)C(NC(=O)c2conc2C)C2CCC(C(F)(F)F)CC2)cc1 [Example 23, 2,4-dimethyl-3-(4-((S)-2-(3-methylisoxazole-4-carboxamido)-2-((1r,4S)-4-(trifluoromethyl)cyclohexyl)acetamido)phenyl)pyridine 1-oxide] | – | –
19 | 47 nM | 85 nM | Cc1cc[n+]([O-])c(C)c1-c1ccc(NC(=O)[C@@H](NC(=O)c2conc2C)[C@@H]2CC=C(F)CC2)cc1 [Example 29, 3-(4-((S)-2-((S)-4-fluorocyclohex-3-en-1-yl)-2-(3-methylisoxazole-4-carboxamido)acetamido)phenyl)-2,4-dimethylpyridine 1-oxide] | – | –
20 | 100 nM | 81 nM | CCc1nocc1C(=O)N[C@H](C(=O)Nc1ccc(-c2c(C)cc[n+]([O-])c2C)cc1)C1CCCC1 [Example 34, (S)-3-(4-(2-cyclopentyl-2-(3-ethylisoxazole-4-carboxamido)acetamido)phenyl)-2,4-dimethylpyridine 1-oxide] | – | –
21 | 38 nM | 1410 nM | Cc1cc[n+]([O-])c(C)c1-c1ccc(NC(=O)[C@@H](NC(=O)c2ccnn2C)C2CCCC2)cc1 [Example 36, (S)-3-(4-(2-cyclopentyl-2-(1-methyl-1H-pyrazole-5-carboxamido)acetamido)phenyl)-2,4-dimethylpyridine 1-oxide] | – | –
22 | 60 nM | 396 nM | Cc1cc[n+]([O-])c(C)c1-c1ccc(NC(=O)[C@@H](NC(=O)c2conc2C)C2CCCC2)cc1 [Example 37, (S)-3-(4-(2-cyclopentyl-2-(3-methylisoxazole-4-carboxamido)acetamido)phenyl)-2,4-dimethylpyridine 1-oxide] | – | –
23 | 20 nM | 191 nM | Cc1cc[n+]([O-])c(C)c1-c1ccc(NC(=O)[C@@H](NC(=O)c2ccnn2C)C2CCCCC2)cc1 [Example 39, (S)-3-(4-(2-cyclohexyl-2-(1-methyl-1H-pyrazole-5-carboxamido)acetamido)phenyl)-2,4-dimethylpyridine 1-oxide] | – | –
24 | 18 nM | 34 nM | Cc1cc[n+]([O-])c(C)c1-c1ccc(NC(=O)[C@@H](NC(=O)c2conc2C)C2CCCCCC2)nc1 [Example 44, (S)-6′-(2-cycloheptyl-2-(3-methylisoxazole-4-carboxamido)acetamido)-2,4-dimethyl-[3,3′-bipyridine] 1-oxide] | – | –

Reference: patent publication US12600728B2, “Interleukin-17 inhibitors” (priority 2020, dated 2026)
